We go through 21 compounds from patent US8933024B2, “Azolopyridin-3-one derivatives as inhibitors of lipases and phospholipases” (Sanofi, priority 2010, dated 2015).

What is called IC50 is the point on the concentration scale where inhibition reaches its midpoint.

Sequence of endothelial lipase (EL) (Q9Y5X9 21-500): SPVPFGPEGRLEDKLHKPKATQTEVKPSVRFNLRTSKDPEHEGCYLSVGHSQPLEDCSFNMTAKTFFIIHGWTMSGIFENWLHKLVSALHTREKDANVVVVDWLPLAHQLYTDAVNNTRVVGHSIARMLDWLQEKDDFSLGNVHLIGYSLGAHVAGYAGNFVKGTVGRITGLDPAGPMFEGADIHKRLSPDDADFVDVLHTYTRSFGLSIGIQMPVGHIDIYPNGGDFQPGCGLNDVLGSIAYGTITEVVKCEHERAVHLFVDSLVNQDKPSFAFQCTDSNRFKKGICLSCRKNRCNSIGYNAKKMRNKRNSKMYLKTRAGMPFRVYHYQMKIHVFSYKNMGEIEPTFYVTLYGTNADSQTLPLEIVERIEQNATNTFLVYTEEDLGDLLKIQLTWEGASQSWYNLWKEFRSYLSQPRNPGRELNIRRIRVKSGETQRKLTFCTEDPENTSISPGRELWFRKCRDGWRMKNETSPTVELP

This assay addresses endothelial lipase (EL) (Homo sapiens (Human), UniProt Q9Y5X9). The experiment in a line: Test for inhibition of EL (assay for EL activity). It is filed as biochemical. The note with it: phospholipase-specific Bodipy phosphocholine substrate; 37° C. for 90 minutes; enzyme from conditioned medium of recombinant cell lines (CHO, HEK293). The source says: Test for inhibition of EL:
EL is released as a secretory protein by recombinant cell lines (CHO, HEK293) in high concentration into cell culture medium (conditioned medium). This was used as an enzyme solution after concentration.
For characterization of the enzymatic activity of endothelial lipase and the effect of inhibitors, the phospholipase-specific substrate 1,2-bis(4,4-difluoro-5,7-dimethyl-4-bora-3a,4a-diaza-s-indacene-3-undecanoyl)-sn-glycero-3-phosphocholine (manufacturer: Molecular Probes) was used. Hydrolysis of the A1 ester bond of this phospholipid by the enzyme releases the fluorescent dye Bodipy, which can be detected by measuring the fluorescence after separation by thin-layer chromatography on an HPTLC plate (silica gel 60, Merck) or directly in the reaction vessel. To prepare the substrate solution, 100 μg of 1,2-bis(4,4-difluoro-5,7-dimethyl-4-bora-3a,4a-diaza-s-indacene-3-undecanoyl)-sn-glycero-3-phosphocholine (manufacturer: Molecular Probes) were dissolved in 100 μl of DMSO and taken up in 2.4 mg of tripalmitin (Sigma) in 393 μl of chloroform which contained 20 mg/ml DOP—choline (1,2-dioleoyl-sn-glycero-3-phosphocholine). 39.3 μl of this lipid mixture were transferred into a fresh reaction vessel and the solvent was evaporated off. The lipid mixture was dissolved by sonicating twice in 4 ml of 200 mM TRIS-HCl, 150 mM sodium chloride, pH=7.4. The subsequent enzyme reaction was effected at 37° C. for 90 minutes. For this purpose, 20 μl of the substrate solution were incubated with 2 μl of inhibitor of appropriate concentration (dissolved in 10% DMSO; 10% DMSO solution was used as a control) and 2 μl of enzyme solution (conditioned medium). Thereafter, 4 μl of the test mixture were applied to an HPTLC plate (silica gel 60, Merck) and the fluorescent dye released was separated for detection with an eluent (diethyl ether:petroleum:acetic acid [78:22:1]). After the eluent had been evaporated off, the plate was read in a fluorescence scanner.
With `COc1cc(CNC(=O)n2sc3ncccc3c2=O)cc(OC)c1OC` [Example 3, 3-Oxo-3H-isothiazolo[5,4-b]pyridine-2-carboxylic acid 3,4,5-trimethoxy-benzylamide], the concentration for half-maximal inhibition (IC50) was 926 nM. In the case of `COc1cc(C(C)NC(=O)n2sc3ncccc3c2=O)cc(OC)c1OC` (stereo not drawn) [Example 4, 3-Oxo-3H-isothiazolo[5,4-b]pyridine-2-carboxylic acid [1-(3,4,5-trimeth-oxy-phenyl)-ethyl]-amide], the IC50 amounted to 40 nM. For `CC(NC(=O)n1sc2ncccc2c1=O)c1ccc2c(c1)OCCO2` (stereo not drawn) [Example 5, 3-Oxo-3H-isothiazolo[5,4-b]pyridine-2-carboxylic acid [1-(2,3-dihydro-benzo[1,4]dioxin-6-yl)-ethyl]-amide] the value was 200 nM.

With `O=C(NCc1ccccc1)n1sc2ncccc2c1=O` [Example 18, 3-Oxo-3H-isothiazolo[5,4-b]pyridine-2-carboxylic acid benzylamide], the IC50 was 69 nM. For `COc1ccc(OC)c(CNC(=O)n2sc3ncccc3c2=O)c1` [Example 28, 3-Oxo-3H-isothiazolo[5,4-b]pyridine-2-carboxylic acid 2,5-dimethoxy-benzylamide] the value was 107 nM; for `Cc1cc(C)c(CNC(=O)n2sc3ncccc3c2=O)c(C)c1` [Example 29, 3-Oxo-3H-isothiazolo[5,4-b]pyridine-2-carboxylic acid 2,4,6-trimethyl-benzylamide], 4290 nM. For `COc1ccc(C(C)NC(=O)n2sc3ncccc3c2=O)cc1OC` (stereo not drawn) [Example 37, 3-Oxo-3H-isothiazolo[5,4-b]pyridine-2-carboxylic acid [1-(3,4-dimethoxy-phenyl)-ethyl]-amide] the value was 148 nM. Consider `COc1cccc(CNC(=O)n2sc3ncccc3c2=O)c1` [Example 38, 3-Oxo-3H-isothiazolo[5,4-b]pyridine-2-carboxylic acid 3-methoxy-benzyl-amide], for which the IC50 amounted to 182 nM.

Turning to `Cc1cccc(C)c1CNC(=O)n1sc2ncccc2c1=O` [Example 39, 3-Oxo-3H-isothiazolo[5,4-b]pyridine-2-carboxylic acid 2,6-dimethyl-benz-ylamide], the 50% inhibitory concentration (IC50) was determined as 120 nM.

As to `CC(C)C(NC(=O)n1sc2ncccc2c1=O)c1ccc2c(c1)OCCCO2` (stereo not drawn) [Example 46, 3-Oxo-3H-isothiazolo[5,4-b]pyridine-2-carboxylic acid [1-(3,4-dihydro-2H-benzo[b][1,4]dioxepin-7-yl)-2-methyl-propyl]-amide], the concentration for half-maximal inhibition (IC50) was 28 nM.

Turning to `CSc1ccc(CNC(=O)n2sc3ncccc3c2=O)cc1` [Example 55, 3-Oxo-3H-isothiazolo[5,4-b]pyridine-2-carboxylic acid 4-methylsulfanyl-benzylamide], the 50% inhibitory concentration (IC50) is 116 nM.

As to `CSc1cccc(CNC(=O)n2sc3ncccc3c2=O)c1` [Example 59, 3-Oxo-3H-isothiazolo[5,4-b]pyridine-2-carboxylic acid 3-methylsulfanyl-benzylamide], the half-inhibitory concentration (IC50) came out at 264 nM. For `COCCOc1ccc(CNC(=O)n2sc3ncccc3c2=O)cn1` [Example 114, 3-Oxo-3H-isothiazolo[5,4-b]pyridine-2-carboxylic acid [6-(2-methoxy-ethoxy)-pyridin-3-ylmethyl]-amide] the value was 216 nM. For `COc1cc(CNC(=O)n2sc3ncccc3c2=O)ccc1OCCN(C)C` [Example 115, 3-Oxo-3H-isothiazolo[5,4-b]pyridine-2-carboxylic acid 4-(2-dimethylamino-ethoxy)-3-methoxy-benzylamide] the value was 1380 nM; for `CC(C)Oc1ncccc1CNC(=O)n1sc2ncccc2c1=O` [Example 116, 3-Oxo-3H-isothiazolo[5,4-b]pyridine-2-carboxylic acid (2-isopropoxy-pyridin-3-ylmethyl)-amide], 1590 nM; for `CCOc1ccc(CNC(=O)n2sc3ncccc3c2=O)cc1OC` [Example 129, 3-Oxo-3H-isothiazolo[5,4-b]pyridine-2-carboxylic acid 4-ethoxy-3-meth-oxy-benzylamide], 230 nM. For `CN(C)Cc1ccc(CNC(=O)n2sc3ncccc3c2=O)cc1` [Example 130, 3-Oxo-3H-isothiazolo[5,4-b]pyridine-2-carboxylic acid 4-dimethylamino-methyl-benzylamide] the value was 85 nM; for `CC(NC(=O)n1sc2ncccc2c1=O)c1ccc(N2CCOCC2)cc1` (stereo not drawn) [Example 134, 3-Oxo-3H-isothiazolo[5,4-b]pyridine-2-carboxylic acid [1-(4-morpholin-4-yl-phenyl)-ethyl]-amide], 391 nM; for `COCCN1CCC(CNC(=O)n2sc3ncccc3c2=O)CC1` [Example 142, 3-Oxo-3H-isothiazolo[5,4-b]pyridine-2-carboxylic acid [1-(2-methoxy-ethyl)-piperidin-4-ylmethyl]-amide], 517 nM.

Take `Cc1ccccc1CNC(=O)n1sc2ncccc2c1=O` [Example 156, 3-Oxo-3H-isothiazolo(5,4-b]pyridine-2-carboxylic acid 2-methyl-benzyl-amide]: the IC50 worked out at 1580 nM.

Consider `COCCOc1ccc([C@@H](C)NC(=O)n2sc3ncccc3c2=O)cc1OC` [Example 161, 3-Oxo-3H-isothiazolo[5,4-b]pyridine-2-carboxylic acid {(R)-1-[3-methoxy-4-(2-methoxy-ethoxy)-phenyl]-ethyl}-amide], for which the IC50 stood at 80 nM.
